{
  "source": "patent US20220111056A1",
  "about": "“DRUG-LOADED EMULSION” (ZHEJIANG ZHIDA PHARMACEUTICAL CO., LTD., priority 2019, published 2022)",
  "format": "physicochemical",
  "experimental": "The specific experimental method was as follows. […] The chloroform solution was mixed with 0.5 ml of chloroform, from which 0.5 ml of diluent was taken and two-fold serial dilution was performed by using chloroform. Then 0.5 ml of a chloroform solution of paclitaxel (10 mg/ml) was added to the above-mentioned sample after the two-fold serial dilution, and then left in a hood to be naturally volatilized overnight. Crystal formation in the dried sample was observed and recorded.",
  "data": [
    {"substance": "castor oil", "values": [
      {"measurement": "solubility of paclitaxel (crystal formation)", "value": "+"}
    ]}
  ]
}
